The subject of data set [1] is primary human hepatic stellate cells (hHSCs). Nature of the data set: hHSC recovery with glutamine and GS inhibition (MSO) under ammonia. It is filed as cell-based. As to the method:
(§1) Primary human hepatic stellate cells (hHSCs) were cultured. Effects of an NH4Cl challenge (0.1-10 mM over 24-72 hrs) on hHSC proliferation (BrdU), metabolic activity (MTS assay), viability (Neutral-Red), ultrastructural changes (TE-M) and gene/protein expression (q-PCR/Western blot) were studied. To test recovery, ammonia treated cells were replenished with glutamine and in separate experiments, pre-treated with L-methionine-sulfoximine (MSO-GS inhibitor) to determine the importance of glutamine synthetase (GS).

A further data set relates to SOD2. Nature of the data set: SOD2 mRNA expression in hHSC. It is filed as cell-based, human.
In data set [2] the test system is primary human hepatic stellate cells (hHSCs). As to the method:
as §1
(§2) In this example, primary human HSCs (hHSCs) were isolated and cultured. Proliferation (BrdU), metabolic activity (MTS), morphology (TEM, light- and immunofluorescence microscopy), HSC activation markers, ability to contract, and changes in oxidative status (ROS) were evaluated to identify effects of ammonia challenge (50 μM, 100 μM, 300 μM) over 24-72 hours.
(§3) Primary hHSCs were isolated from wedge sections of liver tissue, obtained from patients undergoing surgery in the Royal Free Hospital after giving informed consent (EC01.14-RF). Cells were isolated according to Mederacke et al. (Nature Protocols 2015, 10:305-315) with modifications for human liver as described in Rombouts K, Carloni V. Determination and characterization of tetraspanin-associated phosphoinositide-4 kinases in primary and neoplastic liver cells. In: Waugh MG, editor. Lipid Signaling Protocols, 2 ed. New York: Springer Science+Business Media; 2015. p. 203-212). Briefly, 10 g of total human liver tissue was digested with 0.01% Collagenase, 0.05% Pronase and 0.001% DNase I without performing perfusion. The homogenate was filtered through a 100 μm cell strainer and the flow-through was centrifuged at 50×g for 2 minutes at 4° C. After washing the supernatant, gradient centrifugation was performed at 1400×g for 17 minutes at 4° C. using an 11.5% Optiprep gradient. Finally, the interface was collected and washed. Purity of hHSCS was established by detection of CD140b (PDGFRbeta), CD29 (Integrin beta 1) and Cytoglobin (CYGB).
The obtained HSCs were cultured in RPMI supplemented with 20% fetal bovine serum (FBS), GLUTAMAX, nonessential amino acids 1×, 1.0 mM sodium pyruvate, 1× antibiotic-antimycotic (all Life Technologies), referred to as complete HSC medium hereinafter. Experiments described in this study were performed on hHSCs of at least three independent cell preparations between passage 3 and 8.
Cells were seeded (density 26×10^3/cm^2) under basic serum-rich conditions (CM complete medium) for 24 hours, followed by serum deprivation for another 24 hours (SFM). Exogenous glutamine was removed from the culture medium to avoid uncontrolled generation of ammonia. Specific treatment with NH4Cl treatments were replaced daily for the duration of the experiment.

Data set [3] has the same test system.
Text: as §3
The obtained HSCs were cultured in RPMI supplemented with 20% fetal bovine serum (FBS), GLUTAMAX, nonessential amino acids 1×, 1.0 mM sodium pyruvate, 1× antibiotic-antimycotic (all Life Technologies), referred to as complete HSC medium hereinafter. […]
The source holds these as a separate data set.

Data set [4] shares this test system. The conditions noted are these: up to 72 hours. The protocol:
The formation of reactive oxygen species (ROS) was measured using Image-IT™ LIVE Green Reactive Oxygen Species Detection Kit. In FIG. 3B, mean fluorescence intensity (MFI) of ROS signal was normalized according to the number of cells (Hoechst 33342), and expressed as percentage of control.
as §2

Data set [5] has the same test system. Particulars: after 3 hours, sustained after 24 hours, vs control. The protocol:
as §2

Data set [6] relates to α-SMA, vimentin, PDGF-Rβ, Myosin IIa and IIb, p-38 MAPK, Collagen type I. As to the method: as §1, §2
The test system of data set [7] is MMP2, TIMP1, Interleukin-1β, Interleukin 6, Interleukin 8. As to the method:
as §1, §2

Where [8] appears, read: Example 1, NH4Cl challenge 0.1-10 mM over 24-72 hrs.
Where [9] appears, read: different concentrations of ammonia (50, 100, 300 μM), 72 hours.
Setting [10] is: in comparison to MSO treatment only.
Setting [11] is: increasing concentrations of ammonia.

In the case of `NC(=O)CC[C@H](N)C(=O)O` [L-glutamine], the “Ammonia-induced ER enlargement on replenishing the culture with L-glutamine” value in data set [1] (Example 1) is reported as “reversible”.
With `CS(=N)(=O)CC[C@H](N)C(=O)O` (stereo partly drawn) [MSO, L-Methionine sulfoximine], in data set [1] (Example 1, MSO pre-treatment), the “Effect of MSO together with hyperammonemia on hHSC” value was “induced cell detachment and prevention of recovery”.
`CC(=O)N[C@@H](CS)C(=O)O` [NAC, N-acetyl cysteine]: the “Ammonia-induced SOD2 mRNA expression after NAC pre-treatment” value with SOD2 (3 hours of ammonia treatment) is given as “no impact”; with SOD2 (24 hours of ammonia treatment), “almost completely abolished”.
As to `N` [ammonia, NH4Cl], the “Filamentous actin in the cytoskeleton (TRITC-Phalloidin staining)” value in data set [2] (72 hours) was “dose-dependent disruption of filamentous actin”. In data set [2] (Example 1), the “Intracellular ER (ultrastructure)” value is listed as “dose-dependent intracellular ER enlargement”. In data set [2] (setting [8]), the Metabolic activity entry is listed as “time dependent decreases” and the Proliferation result is “time dependent decreases”. The Cell phenotype entry in data set [2] (Example 1, even at 50-100 umol/L) is “cell swelling and a myo-fibroblast-like phenotype”. In addition, in data set [2] (setting [9]), the “Cell proliferation (BrdU assay)” value is reported as “significant inhibition” and the “Metabolic activity (MTS assay)” value is listed as “significant inhibition”. For the same compound, the “Ultrastructural change (TEM)” value in data set [2] (dose-dependent, FIG. 2A) is “dramatic dose-dependent change in the cytosol and marked presence of translucent vacuoles”. In data set [2] (setting [10]), the “Metabolic activity after MSO pretreatment followed by ammonia” value was “did not further inhibit” and the “Proliferation after MSO pretreatment followed by ammonia” value is “did not further inhibit”. Moreover, the “Cell death (Cell Death Detection ELISA)” value in data set [3] is “did not cause cell death”. Further, the ROS production entry in data set [4] is “produced significant reactive oxygen species”. Moreover, the “Contraction of hHSCs cultured on collagen gels” value in data set [5] is on record as “significant ability to contract”. Besides, in data set [6], the “P-38 MAPK expression” value was “dose-dependent response” and the PDGFR-β protein result was “significant up-regulation”. Moreover, in data set [6] (300 μM ammonia), the Vimentin synthesis result is “increased”. In addition, the α-SMA protein expression entry in data set [6] (FIG. 4A) is given as “significantly increase”. Further, in data set [6] (setting [11]), the “Myosin IIa protein” value was “significantly modulated” and the “Myosin IIb protein” value is “significantly modulated”. Also, the “Collagen type I protein” value in data set [6] (not statistically significant) is “tendency to increase”. Further, the “Interleukin 8 mRNA expression” value in data set [7] was “did not modify”. Further, in data set [7] (FIG. 4B), the “MMP2 mRNA expression” value was “strong and significant up-regulation”; the “TIMP1 mRNA expression” value is “down-regulated”. The “Interleukin-1β mRNA expression” value in data set [7] (ammonia 300 μM for 72 hours) is reported as “significantly induced”. In addition, the “Interleukin 6 mRNA expression level” value in data set [7] (ammonia at 50 μM and 100 μM) is on record as “significantly up-regulated”. The “SOD2 mRNA expression” value in the data set on SOD2 (ammonia, after 3 hours, sustained at 24 hours) is reported as “strong increase”.

The values are drawn from US11040021B2, “Treatment of diseases associated with hepatic stellate cell activation using ammonia-lowering therapies” (UCL Business PLC, priority 2014, dated 2021).
